The source of these data is US10988478B1, “Pyrazolo[1,5a]pyrimidine derivatives as IRAK4 modulators” (Genentech, Inc., priority 2015, dated 2021).

For orientation: Ki means a dissociation constant, usually derived from enzyme kinetics or from competition with a known ligand.

In this test the target is human IRAK4 (Homo sapiens (Human), UniProt Q9NWZ3). The test can be described thus: IRAK4 kinase inhibition, Transcreener fluorescence polarization ADP assay. The settings on record: recombinant full-length His6-IRAK4; 125 uM ATP; 90 min; Ki computed using ATP Km 642 uM. Type of test: biochemical. As for the experimental part: Compounds were assayed for inhibition of human IRAK4 and IRAK1 catalytic activity using recombinant enzyme produced from insect cells. Full-length IRAK4 protein, carrying an N-terminal His6-Tag, was obtained from Life Technologies (Carlsbad, Calif., USA). The IRAK1 construct was produced internally and was comprised of IRAK1 residues Arg194 to Ser712, preceded by an NH2-terminal His6 tag and the coding sequence for glutathione-S-transferase.
human IRAK4, sequence (Q9NWZ3 whole entry, the tested form may be a part): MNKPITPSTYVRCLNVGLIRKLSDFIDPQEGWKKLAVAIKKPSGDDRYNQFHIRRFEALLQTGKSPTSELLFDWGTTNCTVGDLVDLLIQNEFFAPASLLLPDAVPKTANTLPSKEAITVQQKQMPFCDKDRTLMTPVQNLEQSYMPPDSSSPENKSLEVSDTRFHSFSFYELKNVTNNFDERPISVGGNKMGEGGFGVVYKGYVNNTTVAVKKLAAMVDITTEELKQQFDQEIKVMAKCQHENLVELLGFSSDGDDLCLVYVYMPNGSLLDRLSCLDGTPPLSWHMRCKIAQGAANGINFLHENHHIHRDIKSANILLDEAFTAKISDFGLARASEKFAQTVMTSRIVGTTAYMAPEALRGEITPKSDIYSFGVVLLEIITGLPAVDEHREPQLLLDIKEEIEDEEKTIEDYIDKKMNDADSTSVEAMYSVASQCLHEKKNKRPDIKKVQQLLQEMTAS
(In general: Fluorescence polarisation rises when a labelled molecule tumbles more slowly, as on binding a larger partner.)
As for `O=C(Nc1cc2c(cc1N1CCOCC1)C(=O)N(C1CCOC1)C2)c1cnn2cccnc12` (single isomer, unassigned) [Example 276, N-(6-morpholino-1-oxo-2-(tetrahydrofuran-3-yl)isoindolin-5-yl)pyrazolo[1,5-a]pyrimidine-3-carboxamide], the Ki stood at 26 nM. With `CC1(C)Cc2cc(NC(=O)c3cnn4cccnc34)c(N3CCc4cncn4CC3)cc2O1` [Example 101, N-[2,2-dimethyl-6-(5,6,8,9-tetrahydroimidazo[1,5-d][1,4]diazepin-7-yl)-3H-benzofuran-5-yl]pyrazolo[1,5-a]pyrimidine-3-carboxamide] the figure was 32 nM; with `CC1(C)Cc2cc(NC(=O)c3cnn4cccnc34)c([C@@H]3C[C@H]3C(N)=O)cc2O1` [Example 396, N-(6-((1R,2R)-2-Carbamoylcyclopropyl)-2,2-dimethyl-2,3-dihydrobenzofuran-5-yl)pyrazolo[1,5-a]pyrimidine-3-carboxamide], 110 nM.

With `CC(C)N1CCC2(CC1)Cc1cc(NC(=O)c3cnn4cccnc34)c(N3CCOCC3)cc1O2` [Example 372, N-(1′-isopropyl-6-morpholino-spiro[3H-benzofuran-2,4′-piperidine]-5-yl)pyrazolo[1,5-a]pyrimidine-3-carboxamide], the Ki is 13 nM. The value for `O=C(Nc1cc2c(cc1N1CCOCC1)OC1(CCNCC1)C2)c1cnn2cccnc12` [Example 142, N-(6-Morpholinospiro[3H-benzofuran-2,4′-piperidine]-5-yl)pyrazolo[1,5-a]pyrimidine-3-carboxamide] was 20 nM; that for `C[C@@]1(O)COc2cc(N3CCN(CC(N)=O)CC3)c(NC(=O)c3cnn4cccnc34)cc2C1` [Example 425, (S)-N-(7-(4-(2-amino-2-oxoethyl)piperazin-1-yl)-3-hydroxy-3-methylchroman-6-yl)pyrazolo[1,5-a]pyrimidine-3-carboxamide] was 6 nM. On to `CC1(C)Cc2cc(NC(=O)c3cnn4cccnc34)c(N3CC[C@](C)(CO)C3)cc2O1` [Example 94, (S)—N-(6-(3-(hydroxymethyl)-3-methylpyrrolidin-1-yl)-2,2-dimethyl-2,3-dihydrobenzofuran-5-yl)pyrazolo[1,5-a]pyrimidine-3-carboxamide], for which the Ki stood at 29 nM. The value for `CC1(C)Cc2cc(NC(=O)c3cnn4cccnc34)c(OC[C@@H]3CCC(=O)N3)cc2O1` [Example 541, N-[2,2-dimethyl-6-[[(2S)-5-oxopyrrolidin-2-yl]methoxy]-3H-benzofuran-5-yl]pyrazolo[1,5-a]pyrimidine-3-carboxamide] was 190 nM. With `CC1(COc2cc3c(cc2NC(=O)c2cnn4cccnc24)CC(C)(C)O3)COC1` [Example 299, N-(2,2-Dimethyl-6-((3-methyloxetan-3-yl)methoxy)-2,3-dihydrobenzofuran-5-yl)pyrazolo[1,5-α]pyrimidine-3-carboxamide] the figure was 31 nM. On to `C[C@]1(CC#N)COc2cc(N3CCOCC3)c(NC(=O)c3cnn4cccnc34)cc2C1` [Example 520, N-[(3S)-3-(cyanomethyl)-3-methyl-7-morpholino-chroman-6-yl]pyrazolo[1,5-a]pyrimidine-3-carboxamide], for which the inhibition constant Ki is 1.1 nM. On to `CC(C)(O)[C@H](F)CN1Cc2cc(NC(=O)c3cnn4cccnc34)ccc2C1=O` [Example 500, N-[2-[(2R)-2-Fluoro-3-hydroxy-3-methyl-butyl]-1-oxo-isoindolin-5-yl]pyrazolo[1,5-a]pyrimidine-3-carboxamide], for which the Ki was 84 nM. With `CC1(C)Cc2cc(NC(=O)c3cnn4cccnc34)c(OC[C@H]3[C@@H]4CNC[C@@H]43)cc2O1` [Example 295, N-(6-(((1R,5S,6R)-3-azabicyclo[3.1.0]hexan-6-yl)methoxy)-2,2-dimethyl-2,3-dihydrobenzofuran-5-yl)pyrazolo[1,5-a]pyrimidine-3-carboxamide], the Ki is 8.2 nM.

Turning to `CCN1CCN(c2cc3c(cc2NC(=O)c2cnn4cccnc24)CC(C)(C)O3)CC1` [Example 453, N-(6-(4-ethylpiperazin-1-yl)-2,2-dimethyl-2,3-dihydrobenzofuran-5-yl)pyrazolo[1,5-a]pyrimidine-3-carboxamide], the Ki amounted to 44 nM. With `CN(C)C(=O)[C@]1(C)Cc2cc(NC(=O)c3cnn4cccnc34)c(N3CCOCC3)cc2O1` [Example 438, (S)—N-(2-(dimethylcarbamoyl)-2-methyl-6-morpholino-2,3-dihydrobenzofuran-5-yl)pyrazolo[1,5-a]pyrimidine-3-carboxamide] the figure was 55 nM; with `CC1(C)Cc2cc(NC(=O)c3cnn4cccnc34)c(N3CCC(S(N)(=O)=O)C3)cc2O1` (stereo not shown) [Example 241, N-(2,2-Dimethyl-6-(3-sulfamoylpyrrolidin-1-yl)-2,3-dihydrobenzofuran-5-yl)pyrazolo[1,5-a]pyrimidine-3-carboxamide], 15 nM; with `CC1(CO)Cc2cc(NC(=O)c3cnn4cccnc34)c(N3CCC(n4ccnc4)CC3)cc2O1` (single isomer, unassigned) [Example 345, N-(6-(4-(1H-imidazol-1-yl)piperidin-1-yl)-2-(hydroxymethyl)-2-methyl-2,3-dihydrobenzofuran-5-yl)pyrazolo[1,5-a]pyrimidine-3-carboxamide], 4 nM. With `C[C@@]1(CO)CCc2cc(NC(=O)c3cnn4cccnc34)c(N3CCOCC3)cc2O1` (single isomer, unassigned) [Example 433] the figure was 14 nM; with `O=C(Nc1cc2c(cc1N1CCOCC1)OC1(CCN(CCO)CC1)C2)c1cnn2cccnc12` [Example 369, N-[1′-(2-Hydroxyethyl)-6-morpholino-spiro[3H-benzofuran-2,4′-piperidine]-5-yl]pyrazolo[1,5-a]pyrimidine-3-carboxamide], 6.8 nM. The value for `CC1(C)Cc2cc(NC(=O)c3cnn4cccnc34)c(N3CCN(C4CCNC4=O)CC3)cc2O1` (stereo not shown) [Example 467, N-(2,2-dimethyl-6-(4-(2-oxopyrrolidin-3-yl)piperazin-1-yl)-2,3-dihydrobenzofuran-5-yl)pyrazolo[1,5-a]pyrimidine-3-carboxamide] was 13 nM.

Regarding `CC1(C)Cc2cc(NC(=O)c3cnn4cccnc34)c(N3CCOCC3)cc2O1` [Example 33, N-(2,2-dimethyl-6-morpholino-2,3-dihydrobenzofuran-5-yl)pyrazolo[1,5-a]pyrimidine-3-carboxamide], the Ki is 5 nM. On to `C[C@@]1(CO)Cc2cc(NC(=O)c3cnn4cccnc34)c(N3CCC(F)(F)CC3)cc2O1` [Example 121, (S)—N-(6-(4,4-Difluoropiperidin-1-yl)-2-(hydroxymethyl)-2-methyl-2,3-dihydrobenzofuran-5-yl)pyrazolo[1,5-a]pyrimidine-3-carboxamide], for which the Ki was 16 nM. The value for `C[C@@]1(CO)Cc2cc(NC(=O)c3cnn4cccnc34)c(OCC(F)F)cc2O1` [Example 310, (S)-N-(6-(2,2-difluoroethoxy)-2-(hydroxymethyl)-2-methyl-2,3-dihydrobenzofuran-5-yl)pyrazolo[1,5-a]pyrimidine-3-carboxamide] was 23 nM; that for `CC1(C)Cc2cc(NC(=O)c3cnn4cc(C(N)=O)cnc34)c(N3CCOCC3)cc2O1` [Example 491, N^3-(2,2-dimethyl-6-morpholino-2,3-dihydrobenzofuran-5-yl)pyrazolo[1,5-a]pyrimidine-3,6-dicarboxamide] was 1.1 nM; that for `C[C@]1(O)COc2cc(N3CCOCC3)c(NC(=O)c3cnn4cccnc34)cc2C1` (single isomer, unassigned) [Example 27] was 260 nM. With `CC(C)(O)CCN1Cc2cc(NC(=O)c3cnn4cccnc34)c(N3CCOCC3)cc2C1=O` [Example 175, N-[2-(3-hydroxy-3-methyl-butyl)-6-morpholino-1-oxo-isoindolin-5-yl]pyrazolo[1,5-a]pyrimidine-3-carboxamide], the inhibition constant (Ki) came to 2.2 nM. The value for `CC1(C)Cc2cc(NC(=O)c3cnn4cccnc34)c(N3CCN(CCn4ccnc4)CC3)cc2O1` [Example 231, N-(6-(4-(2-(1H-Imidazo1-1-yl)ethyl)piperazin-1-yl)-2,2-dimethyl-2,3-dihydrobenzofuran-5-yl)pyrazolo[1,5-a]pyrimidine-3-carboxamide] was 3 nM. With `CNC(=O)CC1CCN(c2cc3c(cc2NC(=O)c2cnn4cccnc24)CC(C)(C)O3)CC1` [Example 183, N-[2,2-dimethyl-6-[4-[2-(methylamino)-2-oxo-ethyl]-1-piperidyl]-3H-benzofuran-5-yl]pyrazolo[1,5-a]pyrimidine-3-carboxamide], the Ki is 5.1 nM. On to `CC(C)(O)CN1CCN(c2cc3c(cc2NC(=O)c2cnn4cccnc24)CC(C)(CO)O3)CC1` (stereo not shown) [Example 151, N-(6-(4-(2-Hydroxy-2-methylpropyl)piperazin-1-yl)-2-(hydroxymethyl)-2-methyl-2,3-dihydrobenzofuran-5-yl)pyrazolo[1,5-a]pyrimidine-3-carboxamide], for which the inhibition constant Ki came to 72 nM.

On to `C[C@@]1(C(F)(F)F)Cc2cc(NC(=O)c3cnn4cccnc34)c(N3CCOCC3)cc2O1` [Example 77, (S)—N-(2-methyl-6-morpholino-2-(trifluoromethyl)-2,3-dihydrobenzofuran-5-yl)pyrazolo[1,5-a]pyrimidine-3-carboxamide], for which the Ki came to 13 nM. Consider `CC1(CO)Cc2cc(NC(=O)c3cnn4cccnc34)c(N3CC4C(CO)C4C3)cc2O1` (stereo not shown) [Example 322, N-(2-(hydroxymethyl)-6-(6-(hydroxymethyl)-3-azabicyclo[3.1.0]hexan-3-yl)-2-methyl-2,3-dihydrobenzofuran-5-yl)pyrazolo[1,5-a]pyrimidine-3-carboxamide], for which the Ki came out at 35 nM. With `CC1(CC(N)=O)CCN(c2cc3c(cc2NC(=O)c2cnn4cccnc24)CC(C)(C)O3)CC1` [Example 535, N-[6-[4-(2-Amino-2-oxo-ethyl)-4-methyl-1-piperidyl]-2,2-dimethyl-3H-benzofuran-5-yl]pyrazolo[1,5-a]pyrimidine-3-carboxamide] the figure was 3.1 nM.
